According to patent US10138207B2, “Benzomorphan analogs and the use thereof” (priority 2012, dated 2018):

Tests used:
κ opioid receptor [1] = target: T1, κ opioid receptor (Homo sapiens, UniProt P41145); assay: κ-opioid receptor [35S]GTPγS functional assay, HEK-293 or CHO cells; type: biochemical; set-up: expressed in transfected cells; host or cells: U-2 OS (in-house membranes); details: HEK-293 or CHO cells; for EC50: read-out: GTPγS κ EC50; for Emax: relative to U69,593
Protocol: Membranes from recombinant HEK-293 cells, CHO or U-2 OS cells expressing the recombinant human κ opioid receptor (κ) were prepared by lysing cells in ice cold hypotonic buffer (2.5 mM MgCl2, 50 mM HEPES, pH 7.4) (10 mL/10 cm dish) followed by homogenization with a tissue grinder/Teflon pestle. Membranes from a cell line naturally expressing kappa opioid receptors can also be used. Membranes were collected by centrifugation at 30,000×g for 15 min at 4° C. and pellets were resuspended in hypotonic buffer to a final concentration of 1-3 mg/mL. Protein concentrations were determined using the BioRad protein assay reagent with bovine serum albumen as standard. Aliquots of κ receptor membranes were stored at −80° C.
Plates were incubated for 30 min at a temperature of about 25° C. with shaking.

κ opioid receptor [2] = target: T1, κ opioid receptor; assay: biochemical; type: binding; set-up: expressed in transfected cells; host or cells: HEK 293 (in-house membrane prep); details: HEK-293 or CHO cells
μ-opioid receptor [3] = target: T2, μ-opioid receptor (Homo sapiens, UniProt P35372); assay: μ-opioid receptor [35S]GTPγS functional assay, U-2 OS cells; type: biochemical; set-up: expressed in transfected cells; host or cells: U-2 OS; details: U-2 OS cells; for EC50: read-out: GTPγS μ EC50; for Emax: relative to DAMGO, read-out: GTPγS μ Emax
T2 sequence (P35372 whole entry, species assumed): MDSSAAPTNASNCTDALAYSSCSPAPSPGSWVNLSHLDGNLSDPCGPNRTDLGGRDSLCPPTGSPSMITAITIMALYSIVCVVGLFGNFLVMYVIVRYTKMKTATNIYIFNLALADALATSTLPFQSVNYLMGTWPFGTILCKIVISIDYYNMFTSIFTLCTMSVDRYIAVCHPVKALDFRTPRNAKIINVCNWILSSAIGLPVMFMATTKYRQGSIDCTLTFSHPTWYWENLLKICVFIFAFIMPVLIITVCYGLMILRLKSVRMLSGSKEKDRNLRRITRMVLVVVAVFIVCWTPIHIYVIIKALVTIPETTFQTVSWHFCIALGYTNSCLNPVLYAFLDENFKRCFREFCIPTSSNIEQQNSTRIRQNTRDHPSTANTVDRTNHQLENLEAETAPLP

μ-opioid receptor [4] = target: T2, μ-opioid receptor; assay: μ-opioid receptor [35S]GTPγS functional assay, HEK-293 or CHO cells; details: for Emax: read-out: GTPγS μ Emax
κ opioid receptor [5] = target: T1, κ opioid receptor; assay: κ-opioid receptor [35S]GTPγS functional assay, U-2 OS cells; type: biochemical; set-up: expressed in transfected cells; host or cells: U-2 OS (in-house membranes); details: U-2 OS cells

T1 sequence (P41145 whole entry): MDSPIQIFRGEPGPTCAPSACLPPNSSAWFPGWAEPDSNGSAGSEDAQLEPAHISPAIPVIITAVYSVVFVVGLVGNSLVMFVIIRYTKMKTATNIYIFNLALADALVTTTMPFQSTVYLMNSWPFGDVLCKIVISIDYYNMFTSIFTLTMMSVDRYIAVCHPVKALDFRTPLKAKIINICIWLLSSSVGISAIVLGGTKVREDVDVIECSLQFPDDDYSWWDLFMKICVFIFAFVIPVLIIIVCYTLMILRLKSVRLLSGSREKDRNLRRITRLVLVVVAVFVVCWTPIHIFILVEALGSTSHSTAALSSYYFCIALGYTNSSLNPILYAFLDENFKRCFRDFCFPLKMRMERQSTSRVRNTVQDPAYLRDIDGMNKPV

| Structure (SMILES) | Ki (κ opioid receptor [2]) | EC50 (μ-opioid receptor [4]) | Emax (μ-opioid receptor [4]) | Ki (κ opioid receptor [2]; bound in μM) | also measured |
| --- | --- | --- | --- | --- | --- |
| CN1CC[C@]2(C)c3cc(O)ccc3CC1C2N(C)C(=O)/C=C/c1ccoc1 (stereo in doubt) [Compound 24, (E)-3-(furan-3-yl)-N-((2R,6R,11S)-8-hydroxy-3,6-dimethyl-1,2,3,4,5,6-hexahydro-2,6-methanobenzo[d]azocin-11-yl)-N-methylacrylamide] | 0.00117 ± 9e-05 µM |  |  |  | EC50 (κ opioid receptor [1]): 0.178 ± 0.0251 µM; Emax (κ opioid receptor [1]): 30.7 ± 2.6% |
| COc1ccc2c(c1)C1(C)CCN(CCC(C(=O)N(C)C)(c3ccccc3)c3ccccc3)C(C2)C1(O)O (stereo not shown) [Compound 7, 4-(11,11-dihydroxy-8-methoxy-6-methyl-1,2,5,6-tetrahydro-2,6-methanobenzo[d]azocin-3(4H)-yl)-N,N-dimethyl-2,2-diphenylbutanamide] | 0.279 ± 0.0398 µM |  |  |  | EC50 (κ opioid receptor [1]; bound in μM): > 20 µM; Emax (κ opioid receptor [1]): -0.33 ± 0.67% |
| COc1ccc2c(c1)[C@@]1(C)CCN(C)C(C2)[C@@H]1N(C)C(=O)/C=C/c1ccoc1 [Compound 16, (E)-3-(furan-3-yl)-N-((6R,11R)-8-methoxy-3,6-dimethyl-1,2,3,4,5,6-hexahydro-2,6-methanobenzo[d]azocin-11-yl)-N-methylacrylamide] | 0.186 ± 0.034 µM |  |  |  | EC50 (κ opioid receptor [1]): 1.05 ± 0.262 µM; Emax (κ opioid receptor [1]): 15 ± 1.53% |
| COc1ccc2c(c1)[C@@]1(C)CCN(CCC(C(=O)N(C)C)(c3ccccc3)c3ccccc3)C(C2)[C@H]1O [Compound 17, 4-((6R,11S)-11-hydroxy-8-methoxy-6-methyl-1,2,5,6-tetrahydro-2,6-methanobenzo[d]azocin-3(4H)-yl)-N,N-dimethyl-2,2-diphenylbutanamide] | 0.0899 ± 0.0147 µM |  |  |  | EC50 (κ opioid receptor [1]; bound in μM): > 20 µM |
| CN1CC[C@]2(C)c3cc(O)ccc3CC1[C@@H]2CC(=O)Nc1ccc(C(=O)O)cc1 [Compound 32, 4-(2-((6S,11R)-8-hydroxy-3,6-dimethyl-1,2,3,4,5,6-hexahydro-2,6-methanobenzo[d]azocin-11-yl)acetamido)benzoic acid] | 12.7 ± 2.09 µM | 0.336 ± 0.0928 µM | 23 ± 1.53% |  | EC50 (μ-opioid receptor [3]): 0.233 ± 0.0582 µM; Emax (μ-opioid receptor [3]): 39.8 ± 2.46% |
| CN1CC[C@]2(C)c3cc(O)ccc3C[C@@H]1[C@@H]2N(C)C(=O)c1cccc(C(=O)O)c1 [Compound 48, 3-(((2R,6R,11R)-8-hydroxy-3,6-dimethyl-1,2,3,4,5,6-hexahydro-2,6-methanobenzo[d]azocin-11-yl)(methyl)carbamoyl)benzoic acid] |  | 5.19 ± 0.549 µM | 26 ± 4.16% | > 20 µM |  |
| CN1CC[C@]2(C)c3cc(O)ccc3CC1[C@@H]2C(=O)Nc1ccc(C(=O)O)cc1 [Compound 52, 4-((6S,11R)-8-hydroxy-3,6-dimethyl-1,2,3,4,5,6-hexahydro-2,6-methanobenzo[d]azocine-11-carboxamido)benzoic acid] |  | 1.03 ± 0.0731 µM | 72.3 ± 3.48% | > 20 µM |  |
| CN1CC[C@]2(C)c3cc(O)ccc3CC1[C@@H]2COc1cc(C(N)=O)ccn1 [Compound 53, 2-(((6S,11R)-8-hydroxy-3,6-dimethyl-1,2,3,4,5,6-hexahydro-2,6-methanobenzo[d]azocin-11-yl)methoxy)isonicotinamide] | 0.701 ± 0.058 µM | 1.11 ± 0.21 µM | 82.7 ± 1.2% |  |  |
| CN1CC[C@]2(C)c3cc(O)ccc3CC1[C@@H]2CC(=O)N1CCC[C@H]1C(=O)O [Compound 55, (2S)-1-(2-((6S,11R)-8-hydroxy-3,6-dimethyl-1,2,3,4,5,6-hexahydro-2,6-methanobenzo[d]azocin-11-yl)acetyl)pyrrolidine-2-carboxylic acid] |  | 5.91 ± 0.422 µM | 71 ± 8.08% | > 20 µM |  |
| CN1CC[C@]2(C)c3cc(O)ccc3C[C@@H]1[C@@H]2N(C)C(=O)c1ccc(C(=O)O)cc1 [Compound 59, 4-(((2R,6R,11R)-8-hydroxy-3,6-dimethyl-1,2,3,4,5,6-hexahydro-2,6-methanobenzo[d]azocin-11-yl)(methyl)carbamoyl)benzoic acid] |  | 3.44 ± 0.183 µM | 76.3 ± 10.2% | > 20 µM |  |
| COc1ccc2c(c1)[C@@]1(C)CCN(C)C(C2)[C@@]1(O)c1cccc(C#N)c1 [Compound 60, 3-((6R,11R)-11-hydroxy-8-methoxy-3,6-dimethyl-1,2,3,4,5,6-hexahydro-2,6-methanobenzo[d]azocin-11-yl)benzonitrile] |  | 6.09 ± 0.529 µM | 38.3 ± 0.88% | > 20 µM |  |
| COc1ccc2c(c1)[C@@]1(C)CCN(C)C(C2)[C@@H]1c1cccc(OCc2ccccc2)c1 [Compound 61, (6S,11R)-11-(3-(benzyloxy)phenyl)-8-methoxy-3,6-dimethyl-1,2,3,4,5,6-hexahydro-2,6-methanobenzo[d]azocine] | 2.77 ± 0.85 µM | 5.76 ± 1.55 µM | 26.7 ± 0.88% |  |  |
| COC(=O)c1cccc([C@]2(O)C3Cc4ccc(OC)cc4[C@@]2(C)CCN3C)c1 [Compound 62, methyl 3-((6R,11R)-11-hydroxy-8-methoxy-3,6-dimethyl-1,2,3,4,5,6-hexahydro-2,6-methanobenzo[d]azocin-11-yl)benzoate] |  | 7.45 ± 0.47 µM | 24 ± 2.97% | > 20 µM |  |
| COC(=O)c1cccc([C@@]2(O)C3Cc4ccc(OC)cc4[C@@]2(C)CCN3C)c1 [Compound 64, methyl 3-((6R,11S)-11-hydroxy-8-methoxy-3,6-dimethyl-1,2,3,4,5,6-hexahydro-2,6-methanobenzo[d]azocin-11-yl)benzoate] | 12.4 µM | > 20 µM |  |  |  |
| COc1ccc2c(c1)[C@@]1(C)CCN(C)C(C2)[C@@]1(O)c1cccc(-c2nnn[nH]2)c1 [Compound 65, (6R,11R)-11-(3-(1H-tetrazol-5-yl)phenyl)-8-methoxy-3,6-dimethyl-1,2,3,4,5,6-hexahydro-2,6-methanobenzo[d]azocin-11-ol] |  | 5.06 ± 1.15 µM | 21.7 ± 2.85% | > 20 µM |  |
| COc1ccc2c(c1)[C@@]1(C)CCN(C)C(C2)[C@]1(O)c1cccc(-c2nnn[nH]2)c1 [Compound 66, (6R,11S)-11-(3-(1H-tetrazol-5-yl)phenyl)-8-methoxy-3,6-dimethyl-1,2,3,4,5,6-hexahydro-2,6-methanobenzo[d]azocin-11-ol] |  | 6.61 ± 0.199 µM | 20.7 ± 1.33% | > 20 µM |  |
| COc1ccc2c(c1)[C@@]1(C)CCN(C)C(C2)[C@@]1(O)c1cccc(C(N)=O)c1 [Compound 67, 3-((6R,11R)-11-hydroxy-8-methoxy-3,6-dimethyl-1,2,3,4,5,6-hexahydro-2,6-methanobenzo[d]azocin-11-yl)benzamide] |  | > 20 µM |  | > 20 µM |  |
| COc1ccc2c(c1)[C@@]1(C)CCN(C)C(C2)C1N1CCCC1 (stereo partly drawn) [Compound 69, (6R)-8-methoxy-3,6-dimethyl-11-(pyrrolidin-1-yl)-1,2,3,4,5,6-hexahydro-2,6-methanobenzo[d]azocine] | 19.8 µM | > 20 µM | 24.3 ± 2.96% |  |  |
| COc1ccc2c(c1)[C@@]1(C)CCN(C)C(C2)[C@]1(O)c1cccc(C(=O)O)c1 [Compound 71, 3-((6R,11S)-11-hydroxy-8-methoxy-3,6-dimethyl-1,2,3,4,5,6-hexahydro-2,6-methanobenzo[d]azocin-11-yl)benzoic acid] |  | 13 ± 1.14 µM | 23 ± 4.58% | > 20 µM |  |
| CN1CC[C@]2(C)c3cc(O)ccc3CC1[C@@H]2CC(=O)N1CCC(C(=O)O)CC1 [Compound 72, 1-(2-((6S,11R)-8-hydroxy-3,6-dimethyl-1,2,3,4,5,6-hexahydro-2,6-methanobenzo[d]azocin-11-yl)acetyl)piperidine-4-carboxylic acid] | 14.8 µM | 4.89 ± 0.508 µM | 70.3 ± 8.33% |  |  |
| COc1ccc2c(c1)[C@@]1(C)CCN(CC3CC3)[C@H](C2)[C@H]1N(C)CC(=O)O [Compound 73, 2-(((2R,6R,11S)-3-(cyclopropylmethyl)-8-methoxy-6-methyl-1,2,3,4,5,6-hexahydro-2,6-methanobenzo[d]azocin-11-yl)(methyl)amino)acetic acid] |  | 18.1 ± 2.72 µM | 25 ± 2.52% | > 20 µM |  |
| C[C@]12CCN(CC3CC3)[C@H](Cc3ccc(O)cc31)[C@H]2NS(=O)(=O)c1cccc(C(F)(F)F)c1 [Compound 128, N-((2R,6S,11S)-3-(cyclopropylmethyl)-8-hydroxy-6-methyl-1,2,3,4,5,6-hexahydro-2,6-methanobenzo[d]azocin-11-yl)-3-(trifluoromethyl)benzenesulfonamide] |  | 0.00767 ± 0.00079 µM | 53.5 ± 3.52% |  | EC50 (μ-opioid receptor [3]): 0.00018 ± 6.9e-05 µM; Emax (μ-opioid receptor [3]): 47.8 ± 1.25%; EC50 (κ opioid receptor [1]): 0.00035 ± 0.00015 µM; Emax (κ opioid receptor [1]): 40.3 ± 2.19%; EC50 (κ opioid receptor [5]; read-out: GTPγS κ EC50): 0.00074 ± 0.00013 µM; Emax (κ opioid receptor [5]; relative to U69,593, read-out: GTPγS κ Emax): 90.7 ± 1.45% |
